Target: 5-hydroxytryptamine receptor 2A (Rattus norvegicus, UniProt P14842)
Experiment: Binding affinity towards 5-hydroxytryptamine 2A receptor sites by using [3H]ketanserin as radioligand

Chain of 5-hydroxytryptamine receptor 2A (P14842 whole entry): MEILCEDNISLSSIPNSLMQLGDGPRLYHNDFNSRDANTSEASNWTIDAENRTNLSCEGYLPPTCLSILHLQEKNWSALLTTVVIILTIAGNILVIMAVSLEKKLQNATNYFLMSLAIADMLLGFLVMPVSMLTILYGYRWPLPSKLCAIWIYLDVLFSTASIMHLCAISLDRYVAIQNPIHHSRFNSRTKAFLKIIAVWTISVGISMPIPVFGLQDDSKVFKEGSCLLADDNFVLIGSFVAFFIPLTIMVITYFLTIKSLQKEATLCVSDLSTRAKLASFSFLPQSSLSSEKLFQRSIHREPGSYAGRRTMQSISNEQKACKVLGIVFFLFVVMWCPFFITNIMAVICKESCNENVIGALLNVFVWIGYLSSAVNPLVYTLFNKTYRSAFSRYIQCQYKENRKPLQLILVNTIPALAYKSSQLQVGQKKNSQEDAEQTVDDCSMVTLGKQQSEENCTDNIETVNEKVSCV

| Compound | Ki [nM] |
| --- | --- |
| CCCCCCc1cc(OC)c(CC(C)N)cc1OC (stereo unspecified) | 2.5 |
| COc1ccc2c(c1)CCc1ccccc1C2CN (stereo unspecified) | 800 |
| CCCCCCc1ccc2c(c1)CCc1ccccc1C2CN (stereo unspecified) | 630 |
| COc1ccc2c(c1)Cc1ccccc1C2CN (stereo unspecified) | 7.5 |
| NCC1c2ccccc2Cc2cc(CCCc3ccccc3)ccc21 (stereo unspecified) | 3.2 |
| COc1cc(CC(C)N)c(OC)cc1CCCc1ccccc1 (stereo unspecified) | 10 |
| COc1cc(OC)c(OC)cc1CC(C)N (stereo unspecified) | 1200 |
| NCC1c2ccccc2CCc2cc(CCCc3ccccc3)ccc21 (stereo unspecified) | 81 |
| NCC1c2ccccc2Cc2cc(Br)ccc21 (stereo unspecified) | 1.3 |
| CCCCCCc1ccc2c(c1)Cc1ccccc1C2CN (stereo unspecified) | 7 |
| NCC1c2ccccc2CCc2cc(Br)ccc21 (stereo unspecified) | 37 |

— ChEMBL document CHEMBL1136137, “Ring substituted analogues of 5-aminomethyl-10,11-dihydro-dibenzo[a,d]cycloheptene (AMDH): potential modes of binding to the 5-HT(2A) receptor” (Bioorg Med Chem Lett, 2003)
